Tests used:
[1] = tested on: HFD-fed C57BL/6J mice; test: HFD feeding study: body weight, glucose tolerance test, plasma metabolic parameters; format: in vivo; settings: for Final body weight: 11 weeks of HFD ± test compound; for Weight gain over the feeding period versus control HFD-fed mice: XP 30, XN 60 mg/kg body weight/day in HFD; for Glucose tolerance test (GTT) versus control: after 4 weeks of feeding, 6 hours fasting, 1.5 g/kg D-glucose i.p.; for Initial body weight: male mice, HFD ± test compound; for IL-6 / Insulin / MCP1 / PCSK9: plasma
Method: Animal Studies. All animal experiments were performed in accordance with institutional and National Health and Medical Research Council guidelines. The experimental protocol was approved by the Institutional Animal Care and Use Committee at Oregon State University and the studies were carried out in accordance with the approved protocol. Nine-week-old wildtype male C57BL/6J mice were obtained from Jackson Laboratory (Bar Harbor, ME, USA). Mice were single-housed in ventilated cages under a 12-12 h light-dark cycle and fed a HFD (Dyets Inc., Bethlehem, PA, USA) containing 60, 20, and 20% total calories from fat, carbohydrate, and protein, respectively. XN (99% purity, Hopsteiner Inc., New York, NY, USA) and XP (99% purity) were mixed into the diet at a concentration of 0.066% for XN and 0.033% for XP to reach respective doses of 60 mg/kg body weight/day and 30 mg/kg body weight/day. Studies included eight HFD-fed mice, eight XP-treated mice, and four XN-treated mice; food intake and body weights were recorded weekly. At week 4, glucose tolerance was tested after 6 hours fasting. Following intraperitoneal bolus injection of 1.5 g/kg of D-glucose, blood glucose levels were measured at 0, 15, 30, 60, and 120 minures using a One Touch UltraMini glucometer (LifeScan Inc., Milpitas, CA, USA). At the end of 11 weeks of feeding, mice were euthanized, and blood, liver, BAT, epididymal WAT, and cortex samples were collected for analyses.
(§1) Tris (pH=7.8) per gram of tissue. The homogenates were centrifuged at 10 000 g for 15 minutes at 4° C., and the supernatants were tested for ALT and AST activity using colorimetric assay kits purchased from Cayman Chemical (Ann Arbor, MI, USA). Triglycerides and total cholesterol were analyzed with commercially available kits (Cayman Chemical, Ann Arbor, MI, USA). Plasma glucose at week 11 was measured with a colorimetric assay, and plasma insulin, MCP-1, IL-6, and PCSK9 were analyzed by ELISA kits purchased from Abcam (Cambridge, UK).

[2] = tested on: HFD-fed C57BL/6J mice; test: Metabolic cages: indirect calorimetry, energy expenditure, motor activity; format: in vivo; settings: for All movements (direct locomotion and fine movements) versus control: three dark and two light cycles; for Mean respiratory exchange ratio (RER) versus control: week 6; for Increase of mean energy expenditure (EE): week 6, normalized on body weight, dark and light cycles
Method: Measure of Metabolic Activity. Metabolic determinations were performed at week 6, with four mice from each treatment group housed in Promethion metabolic cages (Sable Systems, Las Vegas, NV, USA). The indirect calorimetry system consists of metabolic cages identical to regular cages with bedding, each equipped with food hoppers connected to load cells for food intake monitoring. Prior to data collection, all mice were acclimated to the cages for 8 hours. A standard 12 hours light/dark cycle was maintained throughout the calorimetry studies, and data was collected over three dark cycles and two light cycles. Metabolic measurements such as EE and respiratory exchange […] (calculated from the ratio of CO2 volume produced and O2 volume consumed) were measured. Motor activity and food intake were also recorded. JC-1 Mitochondrial Membrane Potential Assay. C2Cl2 cells were seeded in 96-well plates at 1×10^4 cells/mL. After 24 hours, the culture medium was replaced with fresh medium containing carbonyl cyanide p-(trifluoromethoxy) phenylhydrazone (FCCP) from Sigma-Aldrich (St Louis, MO, USA), XP, XN, or DMSO vehicle. Cells were incubated in the presence of the treatments for 1 h and 5,5′,6,6′-tetrachloro-1,1′,3,3′-tetraethylbenzimidazolylcarbocyanine iodide (JC-1) dye was added to each well following the manufacturer's protocol (Cayman Chemical, Ann Arbor, MI, USA). JC-1 aggregates were detected with excitation and emission wavelengths of 540 and 570 nm. JC-1 monomers were detected with excitation and emission wavelengths of 485 and 535 nm on a BioTek Synergy HT plate reader.

[3] = tested on: C2Cl2 cells; test: JC-1 mitochondrial membrane potential assay; format: cell-based, murine; settings: compared with FCCP
Method: Mitochondrial respiration is coupled to ATP synthesis through an electrochemical proton gradient. Proton leak across the inner membrane results in depolarization of the mitochondrial transmembrane without deleteriously lowering the ATP synthesis. Proton leak can be mediated by UCPs and leads to the dissipation of the energy derived from substrate oxidation as heat. Considering the XP and XN effect on EE, the thermogenic activity was evaluated by assessing changes in UCP1 protein expression in the skeletal muscle, BAT, and WAT of HFD-fed mice. Unexpectedly, XP had no effect in UCP1 in the skeletal muscle, BAT, or WAT of HFD-fed mice (FIG. 18A). […] Therefore, the XP intrinsic protonophore properties were investigated by measured variations of mitochondrial membrane potential (ΔψM) in C2Cl2 cells stained with JC-1 dye. […]
Measure of Metabolic Activity. […] Metabolic measurements such as EE and respiratory exchange […] (calculated from the ratio of CO2 volume produced and O2 volume consumed) were measured. Motor activity and food intake were also recorded. […] JC-1 aggregates were detected with excitation and emission wavelengths of 540 and 570 nm. JC-1 monomers were detected with excitation and emission wavelengths of 485 and 535 nm on a BioTek Synergy HT plate reader.

[4] = tested on: HFD-fed C57BL/6J mice; test: AST and ALT enzymatic activities in liver homogenates; format: in vivo; settings: for ALT / AST: 11 weeks, mean ± SEM
Method: Measure of Metabolic Parameters and Liver Enzymes. ALT and AST enzymatic activities and liver samples (n=4-8 per group) were homogenized in 10 mL of 100 mM
as §1

[5] = tested on: 3T3L1 cells; test: MTT cell viability assay in differentiated 3T3L1 adipocytes; format: cell-based, murine
Method: To assess the toxicity of 4-(5-(4-hydroxyphenyl)-1-methyl-1h-pyrazol-3-yl)-5-methoxy-2-(3-methylbut-2-en-1-yl)benzene-1,3-diol (XP), in vitro cell viability assays were performed on several cell lines. HepG2, 3T3L1 and C2Cl2 cells were exposed to XP and cell viability was assessed using an MTT assay. At concentrations lower than 50 μM, XP had no effect on the viability of the human liver cancer cell lines HepG2 and murine myoblast cell lines C2Cl2 with respect to the control treatment (FIGS. 11A-11B). […] This establishes that XP is safe to use in vivo at dosages similar to xanthohumol.
Cell Viability Assays. Cells were seeded in 96-well plates 24 hours prior to adding the compound. HepG2 cells were seeded at a density of 5×10^4 cells/mL and C2Cl2 at 1×10^4 cells/mL in order to reach 80% confluency at the beginning of the experiment. After 24 hours, the culture medium was replaced with fresh medium containing various concentrations ranging between 0 and 200 μM of XP. The cells were incubated in the presence of the compound for 24 hours, at which time, the MTT viability assay was carried as previously described. […] The cells were incubated for 3 hours and then acidified with 100% isopropanol for 15 minutes before absorbance reading at 570 nm on a BioTek Synergy HT plate reader.

| Structure (SMILES) | Plasma concentrations of PCSK9 versus control ([1]; 11 weeks) | Final body weight ([1]; mean ± SEM) [g] | Fasting glucose ([1]; 11 weeks, mean ± SEM) [mg/dL] | Plasma cholesterol ([1]; 11 weeks, mean ± SEM) [mg/dL] | Weight gain over the feeding period versus control HFD-fed mice [1] | Glucose tolerance test (GTT) versus control [1] | Initial body weight ([1]; mean ± SEM) [g] | IL-6 ([1]; 11 weeks, mean ± SEM) [pg/mL] | Insulin ([1]; 11 weeks, mean ± SEM) [μU/mL] | MCP1 ([1]; 11 weeks, mean ± SEM) [pg/mL] | PCSK9 ([1]; 11 weeks, mean ± SEM) [ng/mL] | All movements (direct locomotion and fine movements) versus control [2] | Mean respiratory exchange ratio (RER) versus control [2] | Increase of mean energy expenditure (EE) ([2]; versus control) | Effect on JC-1 aggregates/monomers ratio [3] | AST and ALT test results versus control [4] | ALT [4] [U/mL] | AST [4] [U/mL] | further results |
| --- | --- | --- | --- | --- | --- | --- | --- | --- | --- | --- | --- | --- | --- | --- | --- | --- | --- | --- | --- |
| COc1cc(O)c(CC=C(C)C)c(O)c1C(=O)/C=C/c1ccc(O)cc1 [XN, xanthohumol] | not affected | 44.25 ± 1.97 | 142.67 ± 6.29 | 170.88 ± 6.76 | no change in weight | no effect on glucose clearance | 26.37 ± 0.22 | 5.03 ± 3.3 | 71.17 ± 34.38 | 57.34 ± 15.74 | 215 ± 35.12 | increased | increased | 4-8% | dose-dependent and milder than that of protonophore FCCP | did not change substantially | 0.22 ± 0.06 | 0.16 ± 0.03 | Plasma TGs versus control ([1]; 11 weeks): increase; HOMA-IR ([1]; 11 weeks, mean ± SEM): 26.76 ± 13.47; Locomotor movement increased versus control ([2]; p=0.06): not |
| COc1cc(O)c(CC=C(C)C)c(O)c1-c1cc(-c2ccc(O)cc2)n(C)n1 [XP, 4-(5-(4-hydroxyphenyl)-1-methyl-1H-pyrazol-3-yl)-5-methoxy-2-(3-methylbut-2-en-1-yl)benzene-1,3-diol] | not affected | 37.87 ± 1.72 | 128.98 ± 7.18 | 160.47 ± 4.73 | gained significantly less weight | improved glucose tolerance | 23.66 ± 0.70 | 5.78 ± 2.04 | 34.36 ± 3.73 | 45.00 ± 4.68 | 217.166 ± 26.88 | increased | increased | up to 27% | dose-dependent and milder than that of protonophore FCCP | did not change substantially | 0.38 ± 0.07 | 0.30 ± 0.06 | IL-6 plasma level versus control ([1]; 11 weeks): not significantly different; MCP-1/CCL2 plasma levels versus control ([1]; 11 weeks): not decreased; Triglycerides (TG) and total cholesterol concentrations in plasma versus control ([1]; 11 weeks): no changes; Plasma TG ([1]; 11 weeks, mean ± SEM): 81.81 ± 4.33 mg/dL; Decrease of HOMA-IR (insulin resistance score) ([1]; after 11 weeks of feeding, versus control): 77.9%; Fasting glucose a ([1]; measured at 4 weeks, mean ± SEM): 143.62 ± 7.54 mg/dL; Percent ambulatory time versus control ([2]; mouse, in vivo): increased; Increase of locomotor movement (direct locomotion) ([2]; versus control): 75-135%; Increase of mean energy expenditure (EE) ([2]; versus control, listed as 4-(5-(4-hydroxyphenyl)-1-methyl-1h-pyrazol-3-yl)-5-methoxy-2-(3-methylbut-2-en-1)): 20-27%; Decrease in liver enzymes (AST, ALT) ([4]; versus control, not significant): 30%; Concentration without effect on cell viability ([5]; 3T3L1, MTT): up to 5 μM; Concentration at which dose-dependent reduction in cell viability occurred ([5]; differentiated 3T3L1 adipocytes, MTT): 10 µM |
